# Literature values as cited in patent publication US9963464B2, “Macrocyclic compounds” (Bayer Pharma Aktiengesellschaft, priority 2014, dated 2018).
# Test system: bronchospasms
# Conditions: in vivo; cited from earlier work
structure (smiles),measurement,value
C[N+]1(C)[C@@H]2C[C@@H](OC(=O)C(O)(c3cccs3)c3cccs3)C[C@H]1[C@@H]1O[C@@H]12 [tiotropium],protection against bronchospasms (duration),more than 6 hours
